# Measured values: patent publication US6914045B2, “Glycopeptide antibiotics” (Wyeth Holdings Corporation, priority 2001, dated 2005)
# Like-named read-outs stand apart in the source and are kept apart here.
# What was measured:
# [1] = test system: Gram-positive bacteria comprised of Staphylococcus sp., Streptococcus sp. and Enterococcus sp.; assay: in vitro antibacterial evaluation, MIC by broth dilution (strain not given); type: cell-based
# Method: Methods for in vitro Antibacterial Evaluation (Table 1)
# The minimum inhibitory concentration (MIC), the lowest concentration of the antibiotic which inhibits growth of the test organism, is determined by the broth dilution method using Muller-Hinton II […] (Baltimore Biological Laboratories) following the recommendations of the National Committee for Clinical Laboratory Standards [Methods for dilution antimicrobial susceptibility tests for bacteria that grow aerobically, approved standard M7-A2, National Committee for Clinical Laboratory Standards, Villanova, Pa.].
# An inoculum level of 5×10^5 CFU/mL, and a range of antibiotic concentrations (64-0.06 μg/mL) is used. […] The test organisms include a spectrum of Gram-positive bacteria comprised of Staphylococcus sp., Streptococcus sp. and Enterococcus sp. These organisms include recent clinical isolates that are resistant to methicillin, penicillin and/or vancomycin.
# [2] = test system: Escherichia coli; assay: in vitro antibacterial evaluation, MIC by broth dilution; type: cell-based; conditions: 18 hours at 35° C.
# Summary of the method: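 Step 1: dilute antibiotic across 64-0.06 μg/mL in Muller-Hinton II […]. Step 2: inoculate at 5×10^5 CFU/mL.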
# [3] = test system: Staphylococcus sp.; assay: as above; type: cell-based; conditions: broth dilution, 18 hours at 35° C.
# Summary of the method: (§1)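 Test organisms, which included recent clinical isolates resistant to methicillin, penicillin and/or vancomycin, were inoculated at 5×10^5 CFU/mL into Muller-Hinton II […] containing antibiotic at 64-0.06 μg/mL. Minimum inhibitory concentrations were then read as the lowest level inhibiting growth.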
# [4] = test system: Enterococcus sp.; assay: as above; type: cell-based; conditions: broth dilution, 18 hours at 35° C.
# Summary of the method: as §1
# [5] = test system: Streptococcus sp.; assay: as above; type: cell-based; conditions: broth dilution, 18 hours at 35° C.
# Summary of the method: as §1
# [6] = test system: Staphylococcus aureus-SMITH (GC 4543); assay: acute lethal infection in mice; type: in vivo; conditions: Staphylococcus, read-out: median effective dose (ED50), Staphylococcus aureus-SMITH (GC 4543)
# Summary of the method: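 Protocol: bacteria suspended in trypticase soy broth or hog gastric mucin injected ip into female CD-1 mice at a level killing untreated controls in 24-48 hr; compound given iv in saline or 5% dextrose 30 min post-challenge; five mice per dose; ED50 derived from pooled 7 day survival of three runs.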
smiles,measurement,setting,value
"CC(c1ccccc1)[C@@H]1NC(=O)CNC(=O)[C@H](CO)NC(=O)[C@H](C(O)C2CNC(=N)N2)NC(=O)[C@H](C(O)C2CNC(=N)N2)NC(=O)[C@H](Cc2ccc(O)cc2)NC1=O (stereo partly drawn) [Example 280b, Cyclo[glycyl-β-methylphenylalanyltyrosyl-3-(2-iminoimidazolidin-4-yl)seryl-3-(2-iminoimidazolidin-4-yl)serylseryl]]",MIC,"[1]; Table 2 section r2574-r2600, column 1, 18 hours at 35° C., read-out: MIC, strain of column 1",128 µg/mL
same,MIC,"[1]; Table 2 section r2574-r2600, column 2, 18 hours at 35° C., read-out: MIC, strain of column 2",64 µg/mL
same,MIC,"[1]; Table 2 section r2574-r2600, column 3, 18 hours at 35° C., read-out: MIC, strain not given",128 µg/mL
same,MIC,"[1]; Table 2 section r2574-r2600, column 5, 18 hours at 35° C., read-out: MIC, strain of column 5",64 µg/mL
same,MIC,"[1]; Table 2 section r2574-r2600, column 7, 18 hours at 35° C., read-out: MIC, strain not given",> 128 µg/mL
same,MIC,"[1]; Table 2 section r2574-r2600, column 9, 18 hours at 35° C., read-out: MIC, strain of column 9",> 128 µg/mL
same,MIC,"[1]; Table 2 section r2574-r2600, column 10, 18 hours at 35° C., read-out: MIC, strain of column 10",> 128 µg/mL
same,MIC,"[2]; ATCC25922, Escherichia coli (ATCC 25922), read-out: MIC, Escherichia coli (ATCC 25922)",32 µg/mL
same,MIC,"[2]; Escherichia coli (GC 4559), read-out: MIC, Escherichia coli (GC 4559)",16 µg/mL
same,MIC,"[2]; Escherichia coli (GC 4560), read-out: MIC, Escherichia coli (GC 4560)",32 µg/mL
same,MIC,"[3]; Staphylococcus, read-out: MIC Coagulase Negative Staphylococcus (GC 4547)",32 µg/mL
same,MIC,"[3]; Staphylococcus, read-out: MIC Coagulase Negative Staphylococcus (GC 4548)",128 µg/mL
same,MIC,"[3]; Staphylococcus, read-out: MIC Coagulase Negative Staphylococcus (GC 4549)",32 µg/mL
same,MIC,"[3]; Staphylococcus, read-out: MIC Coagulase Negative Staphylococcus (GC 4551)",128 µg/mL
same,MIC,"[3]; Staphylococcus, read-out: MIC Coagulase Negative Staphylococcus (GC 6257)",32 µg/mL
same,MIC,"[3]; Staphylococcus, read-out: MIC Staphylococcus aureus-SMITH (GC 4543)",64 µg/mL
same,MIC,[3]; read-out: MIC Staphylococcus aureus (ATCC 29213),128 µg/mL
same,MIC,[3]; read-out: MIC Staphylococcus aureus (GC 1131),> 128 µg/mL
same,MIC,[3]; read-out: MIC Staphylococcus aureus (GC 3051),128 µg/mL
same,MIC,[3]; read-out: MIC Staphylococcus aureus (GC 3053),> 128 µg/mL
same,MIC,[3]; read-out: MIC Staphylococcus aureus (GC 4541),128 µg/mL
same,MIC,[3]; read-out: MIC Staphylococcus aureus (GC 4542),128 µg/mL
same,MIC,[3]; read-out: MIC Staphylococcus aureus (GC 4544),128 µg/mL
same,MIC,[3]; read-out: MIC Staphylococcus aureus (GC 4545),64 µg/mL
same,MIC,[3]; read-out: MIC Staphylococcus haemolyticus (GC 4546),32 µg/mL
same,MIC Staphylococcus aureus (ATCC 29213),[3]; strain ATCC 29213,128 µg/mL
same,MIC Staphylococcus aureus (GC 1131),[3]; strain GC 1131,>128 µg/mL
same,MIC Staphylococcus aureus (GC 3051),[3]; strain GC 3051,128 µg/mL
same,MIC Staphylococcus aureus (GC 3053),[3]; strain GC 3053,>128 µg/mL
same,MIC Staphylococcus aureus (GC 4541),[3]; strain GC 4541,128 µg/mL
same,MIC Staphylococcus aureus (GC 4542),[3]; strain GC 4542,128 µg/mL
same,MIC Staphylococcus aureus (GC 4544),[3]; strain GC 4544,128 µg/mL
same,MIC Staphylococcus aureus (GC 4545),[3]; strain GC 4545,64 µg/mL
same,MIC Staphylococcus haemolyticus (GC 4546),[3]; strain GC 4546,32 µg/mL
same,MIC Coagulase Negative Staphylococcus (GC 4547),[3]; strain GC 4547,32 µg/mL
same,MIC Coagulase Negative Staphylococcus (GC 4548),[3]; strain GC 4548,128 µg/mL
same,MIC Coagulase Negative Staphylococcus (GC 4549),[3]; strain GC 4549,32 µg/mL
same,MIC Coagulase Negative Staphylococcus (GC 4551),[3]; strain GC 4551,128 µg/mL
same,MIC Coagulase Negative Staphylococcus (GC 6257),[3]; strain GC 6257,32 µg/mL
same,MIC Staphylococcus aureus-SMITH (GC 4543),[3]; strain SMITH GC 4543,64 µg/mL
same,MIC,"[4]; Enterococcus avium (GC 4558), read-out: MIC, Enterococcus avium (GC 4558)",128 µg/mL
same,MIC,"[4]; Enterococcus faecalis (ATCC 29212), read-out: MIC, Enterococcus faecalis (ATCC 29212)",> 128 µg/mL
same,MIC,"[4]; Enterococcus faecalis (GC 4553), read-out: MIC, Enterococcus faecalis (GC 4553)",> 128 µg/mL
same,MIC,"[4]; Enterococcus faecalis (GC 4554), read-out: MIC, Enterococcus faecalis (GC 4554)",> 128 µg/mL
same,MIC,"[4]; Enterococcus faecalis (GC 6189), read-out: MIC, Enterococcus faecalis (GC 6189)",> 128 µg/mL
same,MIC,"[4]; Enterococcus faecium (GC 2243), read-out: MIC, Enterococcus faecium (GC 2243)",128 µg/mL
same,MIC,"[4]; Enterococcus faecium (GC 4556), read-out: MIC, Enterococcus faecium (GC 4556)",> 128 µg/mL
same,MIC,"[4]; Enterococcus faecium (GC 4557), read-out: MIC, Enterococcus faecium (GC 4557)",64 µg/mL
same,MIC,"[4]; strain ATCC 29212, read-out: MIC Enterococcus faecalis (ATCC 29212)",> 128 µg/mL
same,MIC,"[4]; strain GC 2242, read-out: MIC Enterococcus faecalis (GC 2242)",> 128 µg/mL
same,MIC,"[4]; strain GC 2243, read-out: MIC Enterococcus faecium (GC 2243)",128 µg/mL
same,MIC,"[4]; strain GC 2691, read-out: MIC Enterococcus faecalis (GC 2691)",> 128 µg/mL
same,MIC,"[4]; strain GC 3059, read-out: MIC Enterococcus faecalis (GC 3059)",> 128 µg/mL
same,MIC,"[4]; strain GC 4552, read-out: MIC Enterococcus faecalis (GC 4552)",> 128 µg/mL
same,MIC,"[4]; strain GC 4553, read-out: MIC Enterococcus faecalis (GC 4553)",> 128 µg/mL
same,MIC,"[4]; strain GC 4554, read-out: MIC Enterococcus faecalis (GC 4554)",> 128 µg/mL
same,MIC,"[4]; strain GC 4556, read-out: MIC Enterococcus faecium (GC 4556)",> 128 µg/mL
same,MIC,"[4]; strain GC 4557, read-out: MIC Enterococcus faecium (GC 4557)",64 µg/mL
same,MIC,"[4]; strain GC 4558, read-out: MIC Enterococcus avium (GC 4558)",128 µg/mL
same,MIC,"[4]; strain GC 6189, read-out: MIC Enterococcus faecalis (GC 6189)",> 128 µg/mL
same,MIC,"[5]; strain ATCC 6301, read-out: MIC Streptococcus pneumoniae (ATCC 6301)",32 µg/mL
same,MIC,"[5]; strain GC 1894, read-out: MIC Streptococcus pneumoniae (GC 1894)",64 µg/mL
same,MIC,"[5]; strain GC 4563, read-out: MIC Streptococcus pyogenes (GC 4563)",64 µg/mL
same,MIC,"[5]; strain GC 4564, read-out: MIC Streptococcus agalactiae (GC 4564)",128 µg/mL
same,MIC,"[5]; strain GC 4565, read-out: MIC Streptococcus pneumoniae (GC 4565)",128 µg/mL
same,ED50,[6],> 8 mg/kg
